These results are taken from US20110269811A1, “INHIBITORS OF SEMICARBAZIDE-SENSITIVE AMINE OXIDASE (SSAO) AND VAP-1 MEDIATED ADHESION USEFUL FOR TREATMENT AND PREVENTION OF DISEASES” (priority 2006, published 2011).

By IC50 is commonly meant the concentration needed to halve the response being measured.

In one experiment the target is T1, Human SSAO (Homo sapiens, UniProt Q16853).
T1 construct: rat lung or human umbilical cord homogenates were prepared by chopping the freshly removed tissue; from tissue; host or cells: human umbilical cord homogenate (25,000 g supernatant)
T1 sequence (Q16853 1-763): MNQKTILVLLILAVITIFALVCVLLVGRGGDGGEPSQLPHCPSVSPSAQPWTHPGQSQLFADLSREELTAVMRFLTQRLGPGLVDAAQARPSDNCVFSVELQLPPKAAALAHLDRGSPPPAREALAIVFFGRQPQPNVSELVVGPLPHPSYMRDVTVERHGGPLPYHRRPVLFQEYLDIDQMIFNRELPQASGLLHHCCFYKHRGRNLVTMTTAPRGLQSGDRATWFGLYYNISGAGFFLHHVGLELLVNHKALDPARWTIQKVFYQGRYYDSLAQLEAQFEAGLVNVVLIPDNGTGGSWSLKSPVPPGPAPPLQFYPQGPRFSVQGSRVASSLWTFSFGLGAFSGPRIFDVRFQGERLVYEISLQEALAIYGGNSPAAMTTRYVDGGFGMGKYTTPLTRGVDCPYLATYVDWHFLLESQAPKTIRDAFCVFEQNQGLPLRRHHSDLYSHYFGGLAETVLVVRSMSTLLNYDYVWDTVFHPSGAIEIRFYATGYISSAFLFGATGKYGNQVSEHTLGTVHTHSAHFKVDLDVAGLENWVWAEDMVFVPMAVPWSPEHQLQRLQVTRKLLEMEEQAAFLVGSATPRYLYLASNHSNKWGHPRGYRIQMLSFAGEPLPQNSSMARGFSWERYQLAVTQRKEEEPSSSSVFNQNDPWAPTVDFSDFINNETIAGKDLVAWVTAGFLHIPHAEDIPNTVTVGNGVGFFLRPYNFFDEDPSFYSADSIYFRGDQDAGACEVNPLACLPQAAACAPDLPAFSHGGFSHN
Nature of the experiment: In vitro inhibition of SSAO activity, human umbilical cord homogenate, 14C-benzylamine. Type of experiment: biochemical. The method, then:
SSAO activity was measured as described (Lizcano J M. Et al. (1998) Biochem J. 331:69). Briefly, rat lung or human umbilical cord homogenates were prepared by chopping the freshly removed tissue into small pieces and washing them thoroughly in PBS. The tissue was then homogenized 1:10 (w/v) for lung or 1:5 (w/v) for umbilical cord, in 10 mM potassium phosphate buffer (pH 7.8). Homogenates were then centrifuged at 1000 g at 4° C. for 10 min (lung) or 25,000 g for 30 min (umbilical cord); the supernatants were kept frozen until ready to use. Lung or umbilical cord homogenate was preincubated with clorgyline and pargyline at 1 μM to inhibit MAO-A and -B activity, respectively, and SSAO inhibitors were generally present at 1 nM-10 μM. The reaction was initiated by addition of 20 μM ^14C— benzylamine as substrate. The reaction was carried out at 37° C. in a final volume of 400 μL of 100 mM potassium phosphate buffer (pH 7.2) and stopped with 100 μl of 2M citric acid. Radioactively labeled products were extracted into toluene/ethyl acetate (1:1, v/v) containing 0.6% (w/v) 2,5-diphenyloxazole (PPO) before liquid scintillation counting.

For experiment [1], the system named is carrageenan-induced paw edema. Description: Carrageenan-induced rat paw edema. Type of experiment: in vivo, Sprague Dawley rats. To be noted: for paw swelling: 50 mg/kg orally 60 min prior to carrageenan. From the text: Carrageenan-induced paw edema has been extensively used in the evaluation of anti-inflammatory effects of various therapeutic agents and is a useful experimental system for assessing the efficacy of compounds to alleviate acute inflammation (Whiteley P E and Dalrymple S A, 1998. Models of inflammation: carrageenan-induced paw edema in the rat, in Current Protocols in Pharmacology. Enna S J, Williams M, Ferkany J W, Kenaki T, Porsolt R E and Sullivan J P, eds., pp 5.4.1-5.4.3, John Wiley & Sons, New York). The full development of the edema is neutrophil-dependent (Salvemini D. et al. (1996) Br. J. Pharmacol. 118: 829).
Female Sprague Dawley rats were used in groups of 8-12 and compounds of the invention were administered orally at up to 50 mg/kg 60 min prior to carrageenan exposure. The control group was administered orally an equal volume of vehicle (PBS). Edema in the paws was induced as previously described by injecting 50 μL of a 0.5% solution of carrageenan (Type IV Lambda, Sigma) in saline with a 27-G needle s.c. in the right foot pad. (See Whiteley P. E. and Dalrymple S. A. (1998), Models of inflammation: carrageenan-induced paw edema in the rat, in Current Protocols in Pharmacology, Enna S J, Williams M, Ferkany J W, Kenaki T, Porsolt R E and Sullivan J P, eds., pp 5.4.1-5.4.3, John Wiley & Sons, New York) The size of the tested foot of each animal was measured volumetrically with a plethysmometer immediately after injection of carrageenan solution and at various times up to 360 min after carrageenan induction.
Results of experiments with the compounds II-1-E, I-1-Z, and I-2-Z are shown in FIG. 1, FIG. 5, and FIG. 6, respectively.
Using the same procedure discussed above, the size of the foot of each animal was measured volumetrically before induction of edema, and at 1.5, 3, 4.5 and 6 h after the carrageenan injection. The absolute decreases in paw swelling at 6 h with 1, 10 and 50 mg/kg were 5±11%, 20±9% and 32±6% respectively. Statistical analyses were performed with repeated measures ANOVA followed by Dunnett's test for multiple comparisons.
Paw edema was induced in groups of eight Sprague Dawley rats by injecting 50 μL of a 0.375% solution of carrageenan X in saline, subcutaneously in the foot. After one hour animals were orally dosed once with PBS, compound I-1-Z at 50 mg/kg or with indomethacin at 3 mg/kg. The size of the paws were measured before induction of edema (baseline), and at 1.5, 3, 4.5 and 6 h after carrageenan injection. […] Statistical analyses were performed with repeated measures ANOVA followed by Dunnett's test for multiple comparisons.
Groups of eight Sprague Dawley rats were orally administered PBS, or 0.01, 0.1 or 1 mg/kg of compound I-1-Z. One hour later paw edema was induced in all animals by injecting 50 μL of a 0.5% solution of carrageenan X in saline, subcutaneously into the footpad. The size of the foot of each animal was measured volumetrically before induction of edema, and at 1.5, 3, 4.5 and 6 h after the carrageenan injection. The absolute decreases in paw swelling at 6 h with 0.1 and 1 mg/kg were 34±8 and 29±8% respectively. Statistical analyses were performed with repeated measures ANOVA followed by Dunnett's test for multiple comparisons.
Background: In the carrageenan paw model, swelling and tenderness develop within hours.

The mark [2] stands for this setting: human umbilical cord homogenate, read-out: Human SSAO IC50.

The structures appear in SMILES notation. Where two headings read alike, the source gives them in different places.

On to `COc1ccc(C/C(=C/F)CN)cc1.Cl` [Compound I-1-Z, (Z)-3-Fluoro-2-(4-methoxybenzyl)-allylamine hydrochloride], for which the IC50 on Human SSAO (as restated in Example 46, read-out: IC50 for human SSAO) came out at 18 nM. In addition, the “absolute decrease in paw swelling at 6 h” value is recorded as 34±8% in experiment [1] (0.1 mg/kg orally one hour before carrageenan, low doses, FIG. 13); 29±8% in experiment [1] (1 mg/kg orally one hour before carrageenan, low doses, FIG. 13); 5±11% in experiment [1] (1 mg/kg, dose response, FIG. 7); 20±9% in experiment [1] (10 mg/kg, dose response, FIG. 7); 32±6% in experiment [1] (50 mg/kg, dose response, FIG. 7). The paw swelling result in experiment [1] (between 2-6 h) is listed as “clearly reduced the paw swelling”. Further, the “inhibition of paw edema at 6 h” value in experiment [1] (therapeutic dosing: 50 mg/kg orally one hour after 0.375% carrageenan, FIG. 8) is recorded as 50±4%.
As for `CCOc1ccc(C/C(=C/F)CN)cc1.Cl` [Compound I-2-Z, (Z)-3-Fluoro-2-(4-ethoxybenzyl)-allylamine hydrochloride], the IC50 at Human SSAO (setting [2]) stood at 10 nM. The paw swelling result in experiment [1] (between 3-6 h) is reported as “clearly reduced the paw swelling”.
For `NC/C(F)=C\Cc1cc(F)cc(C(F)(F)F)c1` [II-1-E, (E)-2-Fluoro-4-(3-fluoro-5-trifluoromethylphenyl)-but-2-enylamine], at Human SSAO (setting [2]), the IC50 is 36 nM. The paw swelling entry in experiment [1] (between 2-6 h) is recorded as “clearly reduced the paw swelling”.
